Measured values: patent US9302999B2, “Substituted triazoles as herbicides” (E. I. DU PONT DE NEMOURS AND COMPANY, priority 2012, dated 2016)

What was measured:
Format in all cases: in vivo
[1] = system: velvetleaf (Abutilon theophrasti); experiment: Test F pre-/postemergence: velvetleaf; settings: Preemergence
Description: (§1) Seeds of plant species selected from corn (Zea mays), soybean (Glycine max), velvetleaf (Abutilon theophrasti), lambsquarters (Chenopodium album), poinsettia, wild (wild poinsettia, Euphorbia heterophylla), pigweed, palmer (palmer pigweed, Amaranthus palmeri), waterhemp (common waterhemp, Amaranthus rudis), surinam grass (Brachiaria decumbens), crabgrass, Brazil (Brazilian crabgrass, Digitaria horizontalis), panicum, fall (fall panicum Panicum dichotomiflorum), crabgrass, large (large crabgrass, Digitaria sanguinalis), foxtail, giant (giant foxtail, Setaria faberii), foxtail, green (green foxtail Setaria viridis), goosegrass (Eleusine indica), ragweed (common ragweed, Ambrosia elatior), barnyardgrass (Echinochloa crus-galli), sandbur (southern sandbur, Cenchrus echinatus), arrowleaf sida (Sida rhombifolia), ryegrass, Italian (Italian ryegrass, Lolium multiflorum), dayflower, VA (Virginia (VA) dayflower, Commelina virginica), field bindweed (Convolvulus arvensis), cocklebur (common cocklebur, Xanthium strumarium), morningglory (Ipomoea coccinea), nightshade (eastern black nightshade, Solanum ptycanthum), kochia (Kochia scoparia), nutsedge, yellow (yellow nutsedge, Cyperus esculentus), johnsongrass (Sorghum halepense), smartweed (ladysthumb smartweed, Polygonum persicaria), and beggarticks (hairy beggarticks, Bidens pilosa), were planted into a silt loam soil and treated preemergence with test chemicals formulated in a non-phytotoxic solvent mixture which included a surfactant. At the same time, plants selected from these crop and weed species and also pigweed (Amaranthus retroflexus), waterhemp_RES1 (ALS/Triazine resistant common waterhemp, Amaranthus rudis) and waterhemp_RES2 (ALS/HPPD resistant common waterhemp, Amaranthus rudis) were planted in pots containing a planting medium comprising spaghnum peat moss, vermiculite, wetting agent and starter nutrients treated with postemergence applications of some of the test chemicals formulated in the same manner. Plants ranged in height from 2 to 18 cm for postemergence treatments (1- to 4-leaf stage).
(§2) Treated plants and controls were maintained in a greenhouse for 14 to 21 days, after which time all species were compared to controls and visually evaluated. Plant response ratings, summarized in Table E, are based on a scale of 0 to 100 where 0 is no effect and 100 is complete control. A dash (-) response means no test result.

[2] = system: field bindweed (Convolvulus arvensis); experiment: Test F pre-/postemergence: field bindweed
Description: as §1, §2

[3] = system: nutsedge, yellow (yellow nutsedge, Cyperus esculentus); experiment: Test F pre-/postemergence: nutsedge, yellow; settings: Preemergence
Description: as §1, §2

[4] = system: waterhemp (common waterhemp, Amaranthus rudis); experiment: Test F pre-/postemergence: waterhemp
Description: as §1, §2

[5] = system: cocklebur (common cocklebur, Xanthium strumarium); experiment: Test F pre-/postemergence: cocklebur; settings: Preemergence
Description: as §1, §2

[6] = system: field poppy (Papaver rhoeas); experiment: Test D pre-/postemergence: field poppy
In short: (§3)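 Applied as a non-phytotoxic solvent formulation with surfactant, compounds were tested preemergence in silt loam and postemergence on seedlings 2 to 18 cm high in peat-vermiculite medium. Evaluation was visual, 0 meaning no effect and 100 complete control, at 14 to 21 days.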

[7] = system: speedwell (bird's-eye speedwell, Veronica persica); experiment: Test D pre-/postemergence: speedwell; settings: for Plant response rating, Speedwell: 16 g ai/ha
In short: as §3

[8] = system: windgrass (Apera spica-venti); experiment: Test D pre-/postemergence: windgrass
In short: as §3

[9] = system: field violet (Viola arvensis); experiment: Test D pre-/postemergence: field violet
In short: as §3

[10] = system: barley, winter (winter barley, Hordeum vulgare); experiment: Test D pre-/postemergence: barley, winter
In short: as §3

[11] = 16 g ai/ha, scale 0 to 100, 0 no effect, 100 complete control
[12] = 31 g ai/ha, scale 0 to 100, 0 no effect, 100 complete control
[13] = Preemergence, 16 g ai/ha, scale 0 to 100, 0 no effect, 100 complete control
[14] = Preemergence, 31 g ai/ha, scale 0 to 100, 0 no effect, 100 complete control
[15] = Preemergence, 62 g ai/ha, scale 0 to 100
[16] = Preemergence, 125 g ai/ha, scale 0 to 100
[17] = Preemergence, 250 g ai/ha, scale 0 to 100
[18] = Postemergence, 250 g ai/ha, scale 0 to 100
[19] = Postemergence, 31 g ai/ha, scale 0 to 100
[20] = Postemergence, 125 g ai/ha, scale 0 to 100
[21] = Postemergence, 31 g ai/ha, scale 0 to 100 (0 no effect, 100 complete control)
[22] = Postemergence, 62 g ai/ha, scale 0 to 100 (0 no effect, 100 complete control)
[23] = Postemergence, 125 g ai/ha, scale 0 to 100, 0 no effect, 100 complete control
[24] = Postemergence, 250 g ai/ha, scale 0 to 100 (0 no effect, 100 complete control)
[25] = Postemergence, 16 g ai/ha, scale 0 to 100

Cc1nn(-c2ccc(F)cc2F)nc1Oc1ccnc(C(F)(F)F)c1 [Compound 146]
Plant response rating, Velvetleaf [1, 11]: 0
Plant response rating, Velvetleaf [1, 12]: 0
Plant response rating, Velvetleaf ([1]; 125 g ai/ha, scale 0 to 100): 0
Plant response rating, Velvetleaf ([1]; 250 g ai/ha, scale 0 to 100): 25
Plant response rating, Field Bindweed [2, 13]: 0
Plant response rating, Field Bindweed [2, 14]: 0
Plant response rating, Field Bindweed [2, 15]: 0
Plant response rating, Field Bindweed [2, 16]: 0
Plant response rating, Field Bindweed [2, 17]: 25
Plant response rating, Nutsedge, Yellow [3, 11]: 0
Plant response rating, Nutsedge, Yellow [3, 12]: 0
Plant response rating, Nutsedge, Yellow ([3]; 125 g ai/ha, scale 0 to 100): 0
Plant response rating, Nutsedge, Yellow ([3]; 250 g ai/ha, scale 0 to 100): 0
Plant response rating, Waterhemp [4, 13]: 25
Plant response rating, Waterhemp [4, 14]: 75
Plant response rating, Waterhemp [4, 16]: 100
Plant response rating, Waterhemp [4, 17]: 100

COc1nn(-c2cccc(F)c2)nc1Cc1ccnc(C(F)(F)F)c1 [Compound 139]
Plant response rating, Velvetleaf [1, 11]: 0
Plant response rating, Velvetleaf [1, 12]: 0
Plant response rating, Velvetleaf ([1]; 125 g ai/ha, scale 0 to 100): 0
Plant response rating, Velvetleaf ([1]; 250 g ai/ha, scale 0 to 100): 65
Plant response rating, Field Bindweed [2, 13]: 0
Plant response rating, Field Bindweed [2, 14]: 0
Plant response rating, Field Bindweed [2, 15]: 0
Plant response rating, Field Bindweed [2, 16]: 0
Plant response rating, Field Bindweed [2, 17]: 20
Plant response rating, Nutsedge, Yellow [3, 11]: 0
Plant response rating, Nutsedge, Yellow [3, 12]: 0
Plant response rating, Nutsedge, Yellow ([3]; 125 g ai/ha, scale 0 to 100): 0
Plant response rating, Nutsedge, Yellow ([3]; 250 g ai/ha, scale 0 to 100): 0
Plant response rating, Cocklebur ([5]; 62 g ai/ha, scale 0 to 100): 0
Plant response rating, Cocklebur ([5]; 125 g ai/ha, scale 0 to 100): 0
Plant response rating, Waterhemp [4, 13]: 70
Plant response rating, Waterhemp [4, 14]: 100
Plant response rating, Waterhemp [4, 16]: 100
Plant response rating, Waterhemp [4, 17]: 100

CCc1nn(-c2ccc(F)c(F)c2)nc1Oc1ccnc(C(F)(F)F)c1 [Compound 171]
Plant response rating, Velvetleaf [1, 11]: 0
Plant response rating, Velvetleaf [1, 12]: 0
Plant response rating, Velvetleaf ([1]; 125 g ai/ha, scale 0 to 100): 15
Plant response rating, Velvetleaf ([1]; 250 g ai/ha, scale 0 to 100): 50
Plant response rating, Field Bindweed [2, 13]: 0
Plant response rating, Field Bindweed [2, 14]: 0
Plant response rating, Field Bindweed [2, 15]: 0
Plant response rating, Field Bindweed [2, 16]: 5
Plant response rating, Field Bindweed [2, 17]: 5
Plant response rating, Nutsedge, Yellow [3, 11]: 0
Plant response rating, Nutsedge, Yellow [3, 12]: 0
Plant response rating, Nutsedge, Yellow ([3]; 125 g ai/ha, scale 0 to 100): 0
Plant response rating, Nutsedge, Yellow ([3]; 250 g ai/ha, scale 0 to 100): 0
Plant response rating, Cocklebur [5, 11]: 0
Plant response rating, Cocklebur [5, 12]: 0
Plant response rating, Cocklebur ([5]; 62 g ai/ha, scale 0 to 100): 0
Plant response rating, Waterhemp [4, 13]: 0
Plant response rating, Waterhemp [4, 14]: 95
Plant response rating, Waterhemp [4, 16]: 100
Plant response rating, Waterhemp [4, 17]: 100

CCCc1nn(-c2ccc(F)c(F)c2)nc1Oc1ccnc(C(F)(F)F)c1 [Compound 172]
Plant response rating, Velvetleaf [1, 12]: 0
Plant response rating, Velvetleaf ([1]; 125 g ai/ha, scale 0 to 100): 80
Plant response rating, Velvetleaf ([1]; 250 g ai/ha, scale 0 to 100): 100
Plant response rating, Field Bindweed [2, 18]: 60
Plant response rating, Field Bindweed [2, 19]: 25
Plant response rating, Field Bindweed [2, 20]: 60
Plant response rating, Field Bindweed [2, 14]: 5
Plant response rating, Field Bindweed [2, 16]: 95
Plant response rating, Field Bindweed [2, 17]: 95
Plant response rating, Nutsedge, Yellow [3, 12]: 25
Plant response rating, Nutsedge, Yellow ([3]; 125 g ai/ha, scale 0 to 100): 25
Plant response rating, Nutsedge, Yellow ([3]; 250 g ai/ha, scale 0 to 100): 25
Plant response rating, Cocklebur ([5]; 250 g ai/ha, scale 0 to 100): 5
Plant response rating, Waterhemp [4, 18]: 100
Plant response rating, Waterhemp [4, 19]: 95
Plant response rating, Waterhemp [4, 20]: 100
Plant response rating, Waterhemp [4, 14]: 98
Plant response rating, Waterhemp [4, 16]: 100
Plant response rating, Waterhemp [4, 17]: 100

Cc1nn(-c2ccc(C(F)(F)F)cc2)nc1Oc1ccnc(C(F)(F)F)c1 [Compound 120]
Plant response rating: Field Poppy [6, 21]: 100
Plant response rating: Field Poppy [6, 22]: 100
Plant response rating: Field Poppy [6, 23]: 100
Plant response rating: Field Poppy [6, 24]: 100
Plant response rating, Field Poppy [6, 25]: 100
Plant response rating, Field Poppy [6, 13]: 0
Plant response rating, Field Poppy [6, 14]: 80
Plant response rating, Field Poppy [6, 15]: 80
Plant response rating, Field Poppy [6, 16]: 100
Plant response rating, Field Poppy [6, 17]: 100
Plant response rating: Speedwell [7, 21]: 100
Plant response rating: Speedwell [7, 22]: 100
Plant response rating: Speedwell [7, 23]: 100
Plant response rating: Speedwell [7, 24]: 100
Plant response rating, Speedwell ([7]; Postemergence, scale 0 to 100): 60
Plant response rating, Speedwell ([7]; Preemergence, scale 0 to 100, 0 no effect, 100 complete control): 0
Plant response rating: Windgrass [8, 21]: 15
Plant response rating: Windgrass [8, 22]: 95
Plant response rating: Windgrass [8, 23]: 100
Plant response rating: Windgrass [8, 24]: 100
Plant response rating, Windgrass [8, 25]: 5
Plant response rating, Windgrass [8, 13]: 0
Plant response rating, Windgrass [8, 14]: 80
Plant response rating, Windgrass [8, 15]: 100
Plant response rating, Windgrass [8, 16]: 100
Plant response rating, Windgrass [8, 17]: 100
Plant response rating: Field Violet [9, 21]: 70
Plant response rating: Field Violet [9, 22]: 100
Plant response rating: Field Violet [9, 23]: 100
Plant response rating: Field Violet [9, 24]: 100
Plant response rating, Field Violet [9, 25]: 70
Plant response rating, Field Violet [9, 13]: 75
Plant response rating, Field Violet [9, 14]: 90
Plant response rating, Field Violet [9, 15]: 95
Plant response rating, Field Violet [9, 16]: 100
Plant response rating, Field Violet [9, 17]: 100
Plant response rating: Barley, Winter [10, 21]: 15
Plant response rating: Barley, Winter [10, 22]: 20
Plant response rating: Barley, Winter [10, 23]: 20
Plant response rating: Barley, Winter [10, 24]: 40
Plant response rating, Barley, Winter [10, 25]: 10
Plant response rating, Barley, Winter [10, 13]: 0
Plant response rating, Barley, Winter [10, 14]: 0
Plant response rating, Barley, Winter [10, 15]: 10
Plant response rating, Barley, Winter [10, 16]: 15
Plant response rating, Barley, Winter [10, 17]: 40
